In patent US10774122B2, “ERG targeted therapy” (The Regents of the University of Michigan, priority 2017, dated 2020):
Where a SMILES comes first, the peptide text is derived from it. [ ]: non-standard residue; d: D form.

Legend:
VCaP cells = system: VCaP cells; parameters: species or system chicken embryo; conditions: in vivo, 25 mg/kg
Procedure: The CAM assays were performed as described previously (Brenner et al., 2011; supra). Briefly, fertilized eggs were incubated in a rotary humidified incubator at 38° C. for 10 days. First the CAM was released by applying mild pressure to the hole over the air sac and cutting a square 1 cm^2 window encompassing a second hole near the allantoic vein. Then cultured VCaP cells that stably express Cherry Red and pre-treated with peptidomimetics as indicated were detached by trypsinization and re-suspended in complete medium and 2×10^6 cells were implanted adjacent to the mesenchyme in each egg. The windows were subsequently sealed and the eggs were returned to a stationary incubator. For invasion and intravasation experiments, implanted eggs were treated with 25 mg/kg body weight of the peptidomimetics 6 hrs after inoculation and both the upper and lower CAM were isolated after 72 hr. Invasive cells were processed and stained for chicken collagen IV as previously described (Brenner et al., 2011; supra). […] The embryonic lungs were harvested and analyzed for the presence of tumor cells by quantitative human alu-specific PCR. […] Quantification of human cells in the extracted DNA was carried out as described (van der Horst et al., Biotechniques 37, 940-942, 944, 946 2004). Fluorogenic TaqMan qPCR probes were used as described above, and DNA copy numbers were quantified.

ERG = molecular target: T1, ERG (Homo sapiens, UniProt P11308); assay: ERG:peptide binding by biolayer interferometry (OctetRED)
T1 sequence (P11308 1-479): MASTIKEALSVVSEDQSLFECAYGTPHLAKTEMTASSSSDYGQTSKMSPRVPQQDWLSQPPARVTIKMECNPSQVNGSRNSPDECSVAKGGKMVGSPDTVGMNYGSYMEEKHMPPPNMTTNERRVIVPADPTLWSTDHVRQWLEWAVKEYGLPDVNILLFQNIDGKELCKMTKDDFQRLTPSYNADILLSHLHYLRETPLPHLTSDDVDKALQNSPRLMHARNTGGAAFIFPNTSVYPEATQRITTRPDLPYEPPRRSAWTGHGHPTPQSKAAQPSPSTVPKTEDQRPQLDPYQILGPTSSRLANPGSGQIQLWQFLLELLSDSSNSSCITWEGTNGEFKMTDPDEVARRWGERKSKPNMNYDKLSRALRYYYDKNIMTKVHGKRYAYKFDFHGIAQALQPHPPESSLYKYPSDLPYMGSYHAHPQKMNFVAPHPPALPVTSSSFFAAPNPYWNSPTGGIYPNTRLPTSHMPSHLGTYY
Procedure: The interaction coefficients between ERG and synthetic peptides or peptidomimetics were determined by biolayer interferometry technology using the Octet Red system (ForteBio). Purified ERG and GUS proteins were biotinylated by EZLink NHS-PEG4 Biotinylation Kit (Thermo Scientific) following the manufacturer's protocol and any unincorporated biotin was removed from the reactions with Zeba 2 ml desalt columns (Thermo). Biotinylated proteins (500 μg/ml) were then incubated with super streptavidin biosensors in binding buffer (20 mM HEPES pH 7.4, 150 mM NaCl), blocked with 10 μg/ml biocytin and washed three times in binding buffer. Peptides were serially diluted in binding buffer, mixed with the protein-coupled biosensors and peptidomimetic:protein association/dissociation was monitored for 10 min at 25° C. Nonspecific binding from the signal obtained from peptidomimetic:GUS interactions was subtracted from that of peptidomimetic:ERG interactions and baseline signal drift was controlled by monitoring immobilized ERG without peptide. Octet Red analysis software was used to analyze the data.

[1] = system: ERG and DNA-PKcs enrichment at ERG-regulated genomic loci; assay type: cell-based
Procedure: VCaP cells were grown in complete medium and treated with peptidomimetics 12 hours prior to harvesting cells. ChIP assays were carried out as previously described (Brenner et al., 2011; supra; Yu et al., 2010; supra) using antibodies against ERG (Santa Cruz, # sc-354), DNA-PKcs (BD Biosciences, #610805), rabbit IgG (Santa Cruz, # sc-2027) or mouse IgG (Santa Cruz, # sc-2025). Briefly, chromatin collected from formaldehyde crosslinked and lysed cells was sonicated to an average length of 600 bp. Supernatants containing chromatin fragments were pre-cleared using protein A/G beads (Upstate) and incubated with 3-5 μg of ERG antibody or IgG overnight prior to the addition of […] of protein A/G beads for 1 hour. Antibody-bead precipitates were then washed six times and antibody/protein/DNA complexes were eluted with 150 μl IP elution buffer (50 mM […], 1% SDS). To reverse the crosslinks, the complexes were incubated in elution buffer containing 10 μg RNase A and 0.3 M NaCl at 67° C. for 4-5 hours. DNA/protein complexes were then precipitated with ethanol, air-dried, and dissolved in 100 μl of TE. Protein was then digested by incubation with proteinase K at 45° C. for 1 hour and DNA was purified using a QIAGEN PCR column according to the manufacturer's protocol. QPCR was performed using appropriate primers as previously described (Brenner et al., 2011; supra).

[2] = system: PC3 (ERG fusion-negative) xenografts; assay: PC3 xenograft mouse model, tumor growth; conditions: 25 mg/kg, compared to mutant peptidomimetic
Procedure: Athymic Nude-Foxnlnu male mice were procured from Harlan Laboratories, Inc (Indianapolis, Ind.). All procedures involving mice were approved by the University Committee on Use and Care of Animals (UCUCA) at the University of Michigan and conformed to their relevant regulatory standards. […] Statistical significance for Kaplan-Meier analysis was determined by the log-rank (Mantel-Cox) test.
Athymic Nude-Foxnlnu male mice were procured from Harlan Laboratories, Inc. (Indianapolis, Ind.). VCaP (2×10^6 cells) or PC3 (5×10^5 cells) were resuspended in 100 μl of saline with 50% Matrigel (BD Biosciences, Becton Drive, NJ) and implanted subcutaneously into the flank regions on both sides of the mice. Mice were anesthetized using a cocktail of xylazine (80-120 mg/kg, IP) and ketamine (10 mg/kg, IP) for chemical restraint before tumor cells implantation. For short term assays, all tumors were staged for three weeks before starting peptidomimetic treatment. […]
Tumor growth was recorded every three days using digital calipers and tumor volumes were calculated using the formula (π/6) (L×W2), where L=length of tumor and W=width. Body weight was monitored weekly over the course of the study. […] Statistical significance for Kaplan-Meier analysis was determined by the log-rank (Mantel-Cox) test. […]

In the case of CC(C)C[C@@H](NC(=O)[C@H]1CCCN1C(=O)[C@H]1CCCN1C(=O)[C@@H](Cc1ccc(O)cc1)NC(=O)[C@@H](CC(C)C)NC(=O)[C@@H](Cc1ccccc1)NC(=O)[C@H](NC(=O)CNC(=O)CNC(=O)[C@@H](CCCNC(=N)N)NC(=O)[C@@H](CCCCN)NC(=O)[C@@H](CCCCN)NC(=O)[C@@H](CCCNC(=N)N)NC(=O)[C@@H](CCCNC(=N)N)NC(=O)[C@@H](CCC(N)=O)NC(=O)[C@@H](CCCNC(=N)N)NC(=O)[C@@H](CCCNC(=N)N)NC(=O)[C@@H](CCCNC(=N)N)NC(=O)CN)[C@H](C)O)C(=O)O [RI-EIP1] (H-G[dR][dR][dR][dQ][dR][dR][dK][dK][dR]GG[dT][dF][dL][dY][dP][dP][dL]-OH), the “ERG-mediated invasion and intravasation” value (VCaP cells) is reported as “dramatically blocked”, the Kd (ERG) is reported as 940 nM and the “ERG and DNA-PKcs enrichment at ERG-regulated genomic loci” value [1] is reported as “inhibits”. The “tumor size of PC3 xenografts” value [2] was “no difference in tumor size”.
